Test results taken from patent publication US20220362386A1, “LIQUID COMPOSITIONS COMPRISING A LEVODOPA AMINO ACID CONJUGATE AND USES THEREOF” (NeuroDerm, Ltd., priority 2019, published 2022).
Where a name gives a salt, the structure may show the parent alone. Read-outs that look alike come from different tables or passages of the source. Non-standard residues stand in square brackets, D forms with d. Residues, ends and D or L forms follow the SMILES beside them. Dopa = N[C@@H](Cc1ccc(O)c(O)c1)C(=O)O

Assays:
Assay type in all cases: in vitro ADME, human
[1] = In-vitro metabolism of LDAA compounds using liver microsomes; conditions: for half-life at 0.1 μM / microsomal CLint at 0.1 μM: both sexes, human, pooled human liver microsomes; for half-life at 0.1 μM: pH 7.4, 1.0E−07M, 0.1 mg/mL microsomal protein; for microsomal CLint at 0.1 μM: pH 7.4, calculated from the half-life; for microsomal CLint at 0.1 μM / % Compound Remaining 1st / % Compound Remaining 2nd / % Compound Remaining Mean: 1.0E−07M
Procedure: The stability of test compounds in pooled human liver microsomes was determined on 96-well plates, wherein the test compounds were quantified at five time points by HPLC-MS/MS analysis. The assay matrix included mixed gender and a pool of 50 human liver microsomes, wherein the final microsomal protein concentration was 0.1 mg/mL. The test concentration was 0.1 μM with 0.01% DMSO, 0.25% acetonitrile and 0.25% methanol.
Each test compound was pre-incubated for five minutes with pooled liver microsomes in phosphate buffer (pH 7.4) in a 37° C. shaking water-bath. The reaction was initiated by adding a nicotinamide adenine dinucleotide phosphate (NADPH)-generating system and incubating for 0, 15, 30, 45, and 60 min. The reaction was stopped by transferring the incubation mixture to acetonitrile/methanol. Samples were then mixed and centrifuged, wherein the supernatants were used for HPLC-MS/MS analysis.
In each assay the four reference compounds propranolol, imipramine, verapamil and terfenadine were tested, wherein the propranolol and the imipramine are known to be relatively stable, while the verapamil and the terfenadine are known to be readily metabolized in human liver microsomes.
All samples were analyzed by HPLC-MS/MS using selected reaction monitoring. The HPLC system consisted of a binary LC pump with autosampler, a C-18 column, and a gradient. The conditions were adjusted when necessary.
Peak areas corresponding to the test compound were recorded. The amount of each compound remaining was calculated by comparing the peak area at each time point to time zero. The half-life is calculated from the slope of the initial linear range of the logarithmic curve of compound remaining (%) vs. time, assuming first order kinetics. In addition, the intrinsic clearance (Clint) was calculated from the half-life using the following equation:
Clint(μL/min/mg protein)=0.693/(t1/2×protein concentration)
The results of the in-vitro human liver microsome metabolism tests of various LDAA compounds (10^−7M), in their TFA salt forms, are provided in FIG. 1 and in Table 17, which presents the % of the compound remaining at times 0, 15, 30, 45 and 60 minutes, two half-life measurements and the Clint, calculated as detailed above.

[2] = In-vitro absorption, Caco-2 A-B permeability; conditions: human, Caco-2, pH 7.4, Caco-2 A-B, without verapamil; for Papp A→B at 60 min, 10 μM: 1.0E−05M
Procedure: (§1) Conditions may be adjusted when necessary.
(§2) D denotes donor and R is receiver. […] V is the volume of the donor or receiver.
(§3) The test was performed with and without verapamil, which is a permeation inhibitor, and the results are presented in Tables 22 (without verapamil) and 34 (with verapamil).

[3] = test system: P-gp; experiment: In-vitro absorption, Caco-2 A-B permeability; conditions: human, Caco-2, pH 7.4, with verapamil 100 μM on both the A and B sides, Caco-2 A-B, in the presence of verapamil
Procedure: as §1, §2, §3

[4] = read-out: Half-Life (minute) 1st
[5] = read-out: Half-Life (minute) 2nd
[6] = read-out: Half-Life (minute) Mean
[7] = read-out: Percent Recovery Mean

SMILES | half-life at 0.1 μM [1, 4] | half-life at 0.1 μM [1, 5] | half-life at 0.1 μM [1, 6] | microsomal CLint at 0.1 μM [1] | % Compound Remaining 1st ([1]; incubation time 0 minutes) | % Compound Remaining 2nd ([1]; incubation time 0 minutes) | % Compound Remaining Mean ([1]; incubation time 0 minutes) | % Compound Remaining 1st ([1]; incubation time 15 minutes) | % Compound Remaining 2nd ([1]; incubation time 15 minutes) | % Compound Remaining Mean ([1]; incubation time 15 minutes) | % Compound Remaining 1st ([1]; incubation time 30 minutes) | % Compound Remaining 2nd ([1]; incubation time 30 minutes) | % Compound Remaining Mean ([1]; incubation time 30 minutes) | % Compound Remaining 1st ([1]; incubation time 45 minutes) | % Compound Remaining 2nd ([1]; incubation time 45 minutes) | % Compound Remaining Mean ([1]; incubation time 45 minutes) | % Compound Remaining 1st ([1]; incubation time 60 minutes) | % Compound Remaining 2nd ([1]; incubation time 60 minutes) | % Compound Remaining Mean ([1]; incubation time 60 minutes) | Papp A→B at 60 min, 10 μM ([2]; read-out: Permeability 1st) | further results
N[C@@H](Cc1ccc(O)c(O)c1)C(=O)O [LD (control), L-3,4-dihydroxyphenylalanine, reference compound] | 116 min | 131 min | > 60 min | < 116 µL/min/mg | 100% | 100% | 100% | 102.5% | 97.8% | 100% | 93.2% | 89.3% | 91% | 80.1% | 78% | 79% | 72.3% | 75.2% | 74% | 1.15 ×10⁻⁶ cm/s | Papp A→B at 60 min, 10 μM ([2]; read-out: Permeability 2nd): 1.25 ×10⁻⁶ cm/s; Papp A→B at 60 min, 10 μM ([2]; read-out: Permeability Mean): 1.2 ×10⁻⁶ cm/s; recovery at 60 min, 10 μM ([2]; read-out: Percent Recovery 1st): 37%; recovery at 60 min, 10 μM ([2]; read-out: Percent Recovery 2nd): 22%; recovery at 60 min, 10 μM [2, 7]: 29%; recovery at 60 min, 10 μM ([3]; read-out: Percent Recovery 1st): 63%; recovery at 60 min, 10 μM ([3]; read-out: Percent Recovery 2nd): 41%; recovery at 60 min, 10 μM [3, 7]: 52%
N[C@@H](Cc1ccc(O)c(O)c1)C(=O)N[C@@H](Cc1ccc(O)cc1)C(=O)O [LD-Tyr TFA salt, Levodopa Tyrosine TFA Salt] (H-[Dopa]-Tyr-OH) | 112 min | 315 min | > 60 min | < 116 µL/min/mg | 100% | 100% | 100% | 90.7% | {121.6% | 91% | 102.5% | 110.1% | 106% | 71.4% | 104.1% | 88% | 70.8% | 84.5% | 78% | 0.05 ×10⁻⁶ cm/s | Papp A→B at 60 min, 10 μM ([2]; read-out: Permeability 2nd): 0.04 ×10⁻⁶ cm/s; recovery at 60 min, 10 μM ([2]; read-out: Percent Recovery 1st): 45%; recovery at 60 min, 10 μM ([2]; read-out: Percent Recovery 2nd): 39%; recovery at 60 min, 10 μM [2, 7]: 42%; recovery at 60 min, 10 μM ([3]; read-out: Percent Recovery 1st): 40%; recovery at 60 min, 10 μM ([3]; read-out: Percent Recovery 2nd): 39%; recovery at 60 min, 10 μM [3, 7]: 40%
NC(=O)C[C@H](NC(=O)[C@@H](N)Cc1ccc(O)c(O)c1)C(=O)O [LD-Asn TFA salt, Levodopa Asparagine TFA Salt] (H-[Dopa]-Asn-OH) | 74.4 min | 77.3 min | > 60 min | < 116 µL/min/mg | 100% | 100% | 100% | 92.8% | 96.4% | 95% | 79.9% | 88.6% | 84% | 66.1% | 59.7% | 63% | 58.9% | 64.9% | 62% | 0.6 ×10⁻⁶ cm/s | Papp A→B at 60 min, 10 μM ([2]; read-out: Permeability 2nd): 0.47 ×10⁻⁶ cm/s; Papp A→B at 60 min, 10 μM ([2]; read-out: Permeability Mean): 0.5 ×10⁻⁶ cm/s; recovery at 60 min, 10 μM ([2]; read-out: Percent Recovery 1st): 62%; recovery at 60 min, 10 μM ([2]; read-out: Percent Recovery 2nd): 78%; recovery at 60 min, 10 μM [2, 7]: 70%; recovery at 60 min, 10 μM ([3]; read-out: Percent Recovery 1st): 65%; recovery at 60 min, 10 μM ([3]; read-out: Percent Recovery 2nd): 62%; recovery at 60 min, 10 μM [3, 7]: 63%
N[C@@H](CSC[C@H](NC(=O)[C@@H](N)Cc1ccc(O)c(O)c1)C(=O)O)C(=O)O (single isomer, unassigned; peak 2) [LD-LA2 TFA salt, Levodopa Lanthionine Peak 2 TFA Salt] | 75.7 min | 110 min | > 60 min | < 116 µL/min/mg | 100% | 100% | 100% | 122.9% | 103.5% | 113% | 105.6% | 94.5% | 100% | 97.5% | 102% | 100% | 56.5% | 62.9% | 60% | 20.2 ×10⁻⁶ cm/s | Papp A→B at 60 min, 10 μM ([2]; read-out: Permeability 2nd): 17.8 ×10⁻⁶ cm/s; Papp A→B at 60 min, 10 μM ([2]; read-out: Permeability Mean): 19 ×10⁻⁶ cm/s; recovery at 60 min, 10 μM ([2]; read-out: Percent Recovery 1st): 86%; recovery at 60 min, 10 μM ([2]; read-out: Percent Recovery 2nd): 91%; recovery at 60 min, 10 μM [2, 7]: 89%; recovery at 60 min, 10 μM ([3]; read-out: Percent Recovery 1st): 89%; recovery at 60 min, 10 μM ([3]; read-out: Percent Recovery 2nd): 87%; recovery at 60 min, 10 μM [3, 7]: 88%
